What follows are molecules tested against T1, human RORγ-LBD (Homo sapiens, UniProt P51449) (assay: ROR gamma coactivator peptide recruitment Alphascreen assay (RORγ-LBD binding to GRIP1 coactivator peptide)). Conditions: 5 nM human RORγ-LBD, 30 nM 7-β-hydroxycholesterol, 50 nM biotinylated GRIP1 coactivator peptide, overnight incubation at room temperature; read-out: result (pIC50, RORγ coactivator peptide recruitment Alphascreen assay) (converted).
T1 construct: made in house; host or cells: E. coli (BL-21)
T1 sequence (P51449 262-518): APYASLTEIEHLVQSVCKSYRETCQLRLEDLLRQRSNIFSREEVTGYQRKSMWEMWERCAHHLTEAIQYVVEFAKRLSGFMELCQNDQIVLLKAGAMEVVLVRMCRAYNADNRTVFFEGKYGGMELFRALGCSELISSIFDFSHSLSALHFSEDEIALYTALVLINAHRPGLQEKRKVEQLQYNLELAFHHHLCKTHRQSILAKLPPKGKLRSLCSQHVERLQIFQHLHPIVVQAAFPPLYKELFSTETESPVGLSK
Assay type: biochemical
How it was run: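 Alphascreen proximity read-out after overnight room-temperature incubation, yielding pIC50 from 1-in-2 compound series (2.5% DMSO final). Mixture: 50 nM biotin-GRIP1 peptide, 30 nM 7-β-hydroxycholesterol agonist, 5 nM recombinant 6×His:Flag human RORγ-LBD (aa 262-518), 50 mM HEPES pH 7.4.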
For CC(C)(C)CN(CC(=O)c1c(Cl)cccc1Cl)C(=O)c1cnn([C@H]2CC[C@H](C(=O)O)CC2)c1C(F)(F)F [Example 545, trans-4-(4-((2-(2,6-dichlorophenyl)-2-oxoethyl)(2,2-dimethylpropyl)carbamoyl)-5-(trifluoromethyl)-1H-pyrazol-1-yl)cyclohexanecarboxylic acid], the IC50 was 4.9 nM.
For CC1(C)CCC(CN(CCc2c(Cl)cncc2Cl)C(=O)c2cnn([C@H]3CC[C@H](C(=O)O)CC3)c2C(F)(F)F)CC1 [Example 546, trans-4-(4-((2-(3,5-dichloro-4-pyridinyl)ethyl)((4,4-dimethylcyclohexyl)methyl)carbamoyl)-5-(trifluoromethyl)-1H-pyrazol-1-yl)cyclohexanecarboxylic acid], the IC50 was 11.2 nM.
CC(C)(C)CN(CCc1c(Cl)cncc1Cl)C(=O)c1cnn([C@H]2CC[C@H](C(=O)O)CC2)c1C(F)(F)F [Example 547] showed an IC50 of 19.5 nM.
Molecule CC(C)(C)C#CCN(CCc1c(Cl)cncc1Cl)C(=O)c1cnn([C@H]2CC[C@H](C(=O)O)CC2)c1C(F)(F)F [Example 548, trans-4-(4-((2-(3,5-dichloro-4-pyridinyl)ethyl)(4,4-dimethyl-2-pentyn-1-yl)carbamoyl)-5-(trifluoromethyl)-1H-pyrazol-1-yl)cyclohexanecarboxylic acid] has an IC50 of 11.7 nM.
CC1(CN(CCc2c(Cl)cncc2Cl)C(=O)c2cnn([C@H]3CC[C@H](C(=O)O)CC3)c2C(F)(F)F)CCCCC1 [Example 549, trans-4-(4-((2-(3,5-dichloro-4-pyridinyl)ethyl)((1-methylcyclohexyl)methyl)carbamoyl)-5-(trifluoromethyl)-1H-pyrazol-1-yl)cyclohexanecarboxylic acid] gave an IC50 of 1.74 nM.
CC1(C)CCC(N(CCc2c(Cl)cncc2Cl)C(=O)c2cnn([C@H]3CC[C@H](C(=O)O)CC3)c2C(F)(F)F)CC1 [Example 550, trans-4-(4-((2-(3,5-dichloro-4-pyridinyl)ethyl)(4,4-dimethylcyclohexyl)carbamoyl)-5-(trifluoromethyl)-1H-pyrazol-1-yl)cyclohexanecarboxylic acid] was tested, and the IC50 was 21.4 nM.
With C[C@@]1(CN(CCc2c(Cl)cncc2Cl)C(=O)c2cnn([C@H]3CC[C@H](C(=O)O)CC3)c2C(F)(F)F)CCCO1 [Example 552, trans-4-(4-((2-(3,5-dichloro-4-pyridinyl)ethyl)(((2S)-2-methyltetrahydro-2-furanyl)methyl)carbamoyl)-5-(trifluoromethyl)-1H-pyrazol-1-yl)cyclohexanecarboxylic acid] the IC50 was 331 nM.
For CC1(C)CC(CN(CCc2c(Cl)cncc2Cl)C(=O)c2cnn([C@H]3CC[C@H](C(=O)O)CC3)c2C(F)(F)F)C1 [Example 553, trans-4-(4-((2-(3,5-dichloro-4-pyridinyl)ethyl)((3,3-dimethylcyclobutyl)methyl)carbamoyl)-5-(trifluoromethyl)-1H-pyrazol-1-yl)cyclohexanecarboxylic acid], the IC50 was 2.75 nM.
For CC1(C)C[C@H]1CN(CCc1c(Cl)cncc1Cl)C(=O)c1cnn([C@H]2CC[C@H](C(=O)O)CC2)c1C(F)(F)F [Example 554, trans-4-(4-((2-(3,5-dichloro-4-pyridinyl)ethyl)(((1R)-2,2-dimethylcyclopropyl)methyl)carbamoyl)-5-(trifluoromethyl)-1H-pyrazol-1-yl)cyclohexanecarboxylic acid], the IC50 was 7.08 nM.
CC1(C)CC(CN(CCc2c(Cl)cncc2Cl)C(=O)c2cnn([C@H]3CC[C@](C)(C(=O)O)CC3)c2C(F)(F)F)C1 [Example 556, trans-4-(4-((2-(3,5-dichloro-4-pyridinyl)ethyl)((3,3-dimethylcyclobutyl)methyl)carbamoyl)-5-(trifluoromethyl)-1H-pyrazol-1-yl)-1-methylcyclohexanecarboxylic acid] was tested, and the IC50 was 2.4 nM.
In the case of CC1(CN(CCc2c(Cl)cncc2Cl)C(=O)c2cnn([C@H]3CC[C@H](C(=O)O)CC3)c2C(F)(F)F)CCCC1 [Example 557, trans-4-(4-((2-(3,5-dichloro-4-pyridinyl)ethyl)((1-methylcyclopentyl)methyl)carbamoyl)-5-(trifluoromethyl)-1H-pyrazol-1-yl)cyclohexanecarboxylic acid], the IC50 is reported as 2.82 nM.
Work on CC1(C)[C@@H]2C[C@H](N(CC(=O)c3c(Cl)cncc3Cl)C(=O)c3cnn([C@H]4CC[C@](C)(C(=O)O)CC4)c3C(F)(F)F)C[C@@H]21 [Example 558, trans-4-(4-((2-(3,5-dichloro-4-pyridinyl)-2-oxoethyl)((1R,3r,5S)-6,6-dimethylbicyclo[3.1.0]hex-3-yl)carbamoyl)-5-(trifluoromethyl)-1H-pyrazol-1-yl)-1-methylcyclohexanecarboxylic acid] yielded an IC50 of 2.45 nM.
CC1(C)CC(CN(CC(=O)c2c(Cl)cncc2Cl)C(=O)c2cnn([C@H]3CC[C@](C)(C(=O)O)CC3)c2C(F)(F)F)C1 [Example 559, trans-4-(4-((2-(3,5-dichloro-4-pyridinyl)-2-oxoethyl)((3,3-dimethylcyclobutyl)methyl)carbamoyl)-5-(trifluoromethyl)-1H-pyrazol-1-yl)-1-methylcyclohexanecarboxylic acid] was tested, and the IC50 was 7.08 nM.
CC1(CN(CCc2c(Cl)cncc2Cl)C(=O)c2cnn([C@H]3CC[C@@H](C(=O)O)CC3)c2C(F)(F)F)CCC1 [Example 560, cis-4-(4-((2-(3,5-dichloro-4-pyridinyl)ethyl)((1-methylcyclobutyl)methyl)carbamoyl)-5-(trifluoromethyl)-1H-pyrazol-1-yl)cyclohexanecarboxylic acid] gave an IC50 of 295 nM.
In the case of CC1(CN(CCc2c(Cl)cncc2Cl)C(=O)c2cnn([C@H]3CC[C@](C)(C(=O)O)CC3)c2C(F)(F)F)CCC1 [Example 562, trans-4-(4-((2-(3,5-dichloro-4-pyridinyl)ethyl)((1-methylcyclobutyl)methyl)carbamoyl)-5-(trifluoromethyl)-1H-pyrazol-1-yl)-1-methylcyclohexanecarboxylic acid], the IC50 is reported as 3.72 nM.
CC1(CN(CCc2c(Cl)cncc2Cl)C(=O)c2cnn([C@H]3CC[C@@H](C(=O)O)CC3)c2C(F)(F)F)CC1 [Example 563, cis-4-(4-((2-(3,5-dichloro-4-pyridinyl)ethyl)((1-methylcyclopropyl)methyl)carbamoyl)-5-(trifluoromethyl)-1H-pyrazol-1-yl)cyclohexanecarboxylic acid] showed an IC50 of 204 nM.
Molecule CC1(CN(CCc2c(Cl)cncc2Cl)C(=O)c2cnn([C@H]3CC[C@](C)(C(=O)O)CC3)c2C(F)(F)F)CC1 [Example 564, trans-4-(4-((2-(3,5-dichloro-4-pyridinyl)ethyl)((1-methylcyclopropyl)methyl)carbamoyl)-5-(trifluoromethyl)-1H-pyrazol-1-yl)-1-methylcyclohexanecarboxylic acid] has an IC50 of 4.17 nM.
In the case of Cc1cc(Cl)c(C(=O)CN(CC2CC3(CC3)C2)C(=O)c2cnn([C@H]3CC[C@@H](C(=O)O)CC3)c2C(F)(F)F)c(Cl)c1 [Example 565, cis-4-(4-((2-(2,6-dichloro-4-methylphenyl)-2-oxoethyl)(spiro[2.3]hex-5-ylmethyl)carbamoyl)-5-(trifluoromethyl)-1H-pyrazol-1-yl)cyclohexanecarboxylic acid], the IC50 is reported as 18.2 nM.
Molecule C[C@]1(C(=O)O)CC[C@H](n2ncc(C(=O)N(CC(=O)c3c(Cl)cccc3Cl)CC3CC4(CC4)C3)c2C(F)(F)F)CC1 [Example 566, trans-4-(4-((2-(2,6-dichlorophenyl)-2-oxoethyl)(spiro[2.3]hex-5-ylmethyl)carbamoyl)-5-(trifluoromethyl)-1H-pyrazol-1-yl)-1-methylcyclohexanecarboxylic acid] has an IC50 of 3.09 nM.
O=C(CN(CC1CC2(CC2)C1)C(=O)c1cnn([C@H]2CC[C@H](C(=O)O)CC2)c1C(F)(F)F)c1c(Cl)cccc1Cl [Example 567, trans-4-(4-((2-(2,6-dichlorophenyl)-2-oxoethyl)(spiro[2.3]hex-5-ylmethyl)carbamoyl)-5-(trifluoromethyl)-1H-pyrazol-1-yl)cyclohexanecarboxylic acid] was tested, and the IC50 was 2.4 nM.
For Cc1cc(Cl)c(C(=O)CN(CC(C)(C)C)C(=O)c2cnn([C@H]3CC[C@](C)(C(=O)O)CC3)c2C(F)(F)F)c(Cl)c1 [Example 568, trans-4-(4-((2-(2,6-dichloro-4-methylphenyl)-2-oxoethyl)(2,2-dimethylpropyl)carbamoyl)-5-(trifluoromethyl)-1H-pyrazol-1-yl)-1-methylcyclohexanecarboxylic acid], the IC50 was 3.39 nM.
Work on C[C@]1(C(=O)O)CC[C@H](n2ncc(C(=O)N(CC(=O)c3c(Cl)cccc3Cl)CC3CCC4(CC3)CC4)c2C(F)(F)F)CC1 [Example 569, trans-4-(4-((2-(2,6-dichlorophenyl)-2-oxoethyl)(spiro[25]oct-6-ylmethyl)carbamoyl)-5-(trifluoromethyl)-1H-pyrazol-1-yl)-1-methylcyclohexanecarboxylic acid] yielded an IC50 of 6760 nM.
In the case of C[C@@H]1C[C@H](n2ncc(C(=O)N(CC(=O)c3c(Cl)cccc3Cl)CC3CC(C)(C)C3)c2C(F)(F)F)CC[C@@H]1C(=O)O [Example 570, (1S,2R,4R)-4-(4-((2-(2,6-dichlorophenyl)-2-oxoethyl)((3,3-dimethylcyclobutyl)methyl)carbamoyl)-5-(trifluoromethyl)-1H-pyrazol-1-yl)-2-methylcyclohexanecarboxylic acid], the IC50 is reported as 18.6 nM.
For Cc1cc(Cl)c(C(=O)CN(CC2(C)CCCCC2)C(=O)c2cnn([C@H]3CC[C@](C)(C(=O)O)CC3)c2C(F)(F)F)c(Cl)c1 [Example 571, trans-4-(4-((2-(2,6-dichloro-4-methylphenyl)-2-oxoethyl)((1-methylcyclohexyl)methyl)carbamoyl)-5-(trifluoromethyl)-1H-pyrazol-1-yl)-1-methylcyclohexanecarboxylic acid], the IC50 was 1.26 nM.

From US9365522B2, “Pyrazole amide derivative” (AMGEN INC., priority 2015, dated 2016)
